The subject of one test is C3H10T1/2 cells. Kind of test: C3H assay: differentiation of C3H10T1/2 cells by mSHH, measurement of alkaline phosphatase. The class given is cell-based, mouse. To be noted: Mus musculus, C3H 10T1/2; C3H10T1/2 cells stimulated with mSHH for 72 hours; alkaline phosphatase activity; read-out: IC50 Ranges.
For test [1], the system named is SMO L416F mutant cell line. Kind of test: C3H10T1/2 cell differentiation assay in SMO L416F mutant cell line versus wild type. Format: cell-based, mouse. Conditions: SMO L416F mutant cell line compared to the wild type, C3H10T1/2 cell differentiation assay. The text has this: FIG. 1 is a graph of the percent inhibition of C3H10T1/2 cell differentiation of vismodegib compared to compound of the invention (compound number 174), in wild type versus SMO L416F mutant cell line.
Loss of Potency in C3H10T1/2 Cell Differentiation Assay Associated with Presence of SMO L416F Mutation.
Table 3 below details the number of fold reduction in potency of a range of compounds of the invention when applied to the SMO L416F mutant cell line compared to the wild type. SMO mutation has been described in the literature (Pricl, Sabrina, et al.) as a key mutation causative of vismodegib resistance in the clinic by interfering with drug binding.

For the next test, the target named is T1, SMO (Homo sapiens, UniProt Q99835).
T1 construct: expressed in transfected cells; host or cells: HEK293
Kind of test: Smoothened (SMO) binding fluorescence polarisation assay (BODIPY-cyclopamine competition). To be noted: SMO binding FP assay versus C3H10T1/2 cellular assay. The protocol: Standard Protocol for Smoothened (SMO) Binding Fluorescence Polarisation Assay.
The assay measures the ability of the test compounds to compete with a fluorescently-labelled version of the known ligand, cyclopamine, for binding to SMO. The fluorescent tag used is BODIPY (boron dipyrromethene).
An aliquot of a membrane preparation from a SMO-over-expressing HEK293 cell line is diluted to protein concentration of 0.117 mg/ml in assay buffer (25 mM HEPES, 2 mM EDTA, 0.05% γ-globulin, 0.01% pluronic acid pH7.4, plus protease Inhibitor cocktail). 8.5 μl of the membrane suspension is added to each well of a black, low volume 384 well microtitre plate.
Test compounds are added in a seven point dilution range to the wells containing the membrane preparation. The final DMSO solvent concentration in the wells is maintained at 0.3%. 6.5 μl of a 6.9 nM BODIPY-cyclopamine solution is added to each of the wells (final assay concentration 3 nM).
The plate is sealed and stored in the dark at room temperature for 24 hours prior to measurement of the fluorescence polarisation signal on a Perkin Elmer Envision multi-label reader.
Table 4 below details the ratio of SMO binding compared to the potency in the C3H10T1/2 cellular assay. The small ratio between SMO binding and potency for vismodegib is considered to be reflective of the fact vismodegib acts mainly through inhibition of the SMO protein. The larger ratios for the compound of the invention are considered to be reflective of alternate actions outside of direct SMO inhibition.
In general terms: Fluorescence polarisation rises when a labelled molecule tumbles more slowly, as on binding a larger partner.

T1 sequence (Q99835 28-787): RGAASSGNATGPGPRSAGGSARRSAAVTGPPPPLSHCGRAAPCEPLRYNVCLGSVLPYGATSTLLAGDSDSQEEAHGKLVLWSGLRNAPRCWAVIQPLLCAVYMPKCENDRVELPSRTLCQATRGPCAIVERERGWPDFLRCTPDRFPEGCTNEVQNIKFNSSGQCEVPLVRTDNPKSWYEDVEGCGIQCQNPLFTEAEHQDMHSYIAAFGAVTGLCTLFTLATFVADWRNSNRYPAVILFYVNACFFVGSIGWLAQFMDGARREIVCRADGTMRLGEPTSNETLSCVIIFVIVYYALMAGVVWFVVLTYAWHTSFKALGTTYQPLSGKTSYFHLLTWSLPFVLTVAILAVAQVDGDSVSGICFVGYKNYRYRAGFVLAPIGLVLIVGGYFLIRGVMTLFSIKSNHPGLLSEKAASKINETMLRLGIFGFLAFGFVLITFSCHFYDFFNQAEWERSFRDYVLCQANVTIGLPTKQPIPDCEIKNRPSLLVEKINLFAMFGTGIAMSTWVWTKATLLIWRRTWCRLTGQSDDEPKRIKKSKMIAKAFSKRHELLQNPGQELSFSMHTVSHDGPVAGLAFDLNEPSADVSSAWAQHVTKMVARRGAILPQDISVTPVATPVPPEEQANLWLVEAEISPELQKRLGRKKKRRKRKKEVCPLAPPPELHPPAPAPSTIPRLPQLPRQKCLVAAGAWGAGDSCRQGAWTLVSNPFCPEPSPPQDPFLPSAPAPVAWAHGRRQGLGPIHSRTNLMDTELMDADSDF

In general, IC50 refers to the concentration needed to halve the response being measured. On to `CC(C)C(CO)NC(=O)N1CC(S(=O)(=O)N2CCC(c3c[nH]c4ncccc34)CC2)C1` (racemic) [Compound 26, N-[1-(Hydroxymethyl)-2-methyl-propyl]-3-[[4-(1H-pyrrolo[2,3-b]pyridin-3-yl)-1-piperidyl]sulfonyl]azetidine-1-carboxamide], for which the half-inhibitory concentration (IC50) in the test on C3H10T1/2 cells is 10 to 100 nM. Besides, the “Fold reduction in potency in SMO L416F mutant cell line” value (“Fold reduction in potency” below) in test [1] amounted to 67.

For the molecule `O=C(OC1CCCCC1)N1CC(S(=O)(=O)N2CCC(c3c[nH]c4ncccc34)CC2)C1` [Compound 75, cyclohexyl 3-[4-(1H-pyrrolo[2,3-b]pyridin-3-yl)piperidin-1-yl]sulfonylaze-tidine-1-carboxylate], the IC50 in the test with C3H10T1/2 cells fell in the range of 10 to 100 nM. The “Fold reduction in potency” value in test [1] came to 60.

`O=C(NCCc1cccs1)N1CC(S(=O)(=O)N2CCC(c3c[nH]c4ncccc34)CC2)C1` [Compound 84, 3-[4-(1H-pyrrolo[2,3-b]pyridin-3-yl)piperidin-1-yl]sulfonyl-N-(2-thiophen-2-ylethyl)azetidine-1-carboxamide]: the IC50 with C3H10T1/2 cells was in the range of 10 to 100 nM. In addition, the “Fold reduction in potency” value in test [1] is on record as 50.

In the case of `Cc1ccc2c(C3CCN(S(=O)(=O)C4CN(C(=O)OC(C)(C)C)C4)CC3)c[nH]c2n1` [Compound 347, tert-butyl 3-[4-(6-methyl-1H-pyrrolo [2,3-b]pyridin-3-yl)piperidin-1-yl]sulfonylaze-tidine-1-carboxylate], the IC50 in the test with C3H10T1/2 cells was in the range of 10 to 100 nM. At SMO, the “Ratio of potency in SMO binding assay to potency in C3H10T1/2 cellular assay” value (“Ratio of potency in SMO binding assay” for short) is listed as 3.8.

Take `C[C@](O)(C(=O)N1CC(S(=O)(=O)N2CCC(c3c[nH]c4ncccc34)CC2)C1)C(F)(F)F` [Compound 388, (2S)-3,3,3-trifluoro-2-hydroxy-2-methyl-1-[3-[4-(1H-pyrrolo[2,3-b]pyridin-3-yl)piperidin-1-yl]sulfonylaze-tidin-1-yl]propan-1-one]: the concentration for half-maximal inhibition (IC50) in the test on C3H10T1/2 cells fell in the range of 10 to 100 nM. Besides, at SMO, the “Ratio of potency in SMO binding assay” value is reported as 5.4.

As to `C[C@](O)(C(=O)N1CC(S(=O)(=O)N2CCC(c3coc4cccnc34)CC2)C1)C(F)(F)F` [Compound 395, (2S)-3,3,3-trifluoro-1-[3-(4-furo[3,2-b]pyridin-3-ylpiperidin-1-yl)sulfonyl-azetidin-1-yl]-2-hydroxy-2-methylpropan-1-one], the IC50 with C3H10T1/2 cells was 100 to 1000 nM. Moreover, the “Ratio of potency in SMO binding assay” value on SMO is listed as 2.6.

As to `CC(C)(C)C(=O)CN1CC(S(=O)(=O)N2CCC(c3ccc(Cl)cc3)CC2)C1` [Compound 396, 1-[3-[4-(4-chlorophenyl)piperidin-1-yl]sulfonylaze-tidin-1-yl]-3,3-dimethylbutan-2-one], the IC50 with C3H10T1/2 cells lay within 100 to 1000 nM. In addition, the “Ratio of potency in SMO binding assay” value on SMO is listed as 2.5.

Turning to `CC(C)(O)CC(=O)N1CC(S(=O)(=O)N2CCC(c3c[nH]c4ncccc34)CC2)C1` [Compound 397, 3-hydroxy-3-methyl-1-[3-[4-(1H-pyrrolo[2,3-b]pyridin-3-yl)piperidin-1-yl]sulfonylaze-tidin-1-yl]butan-1-one], in the test with C3H10T1/2 cells, the half-inhibitory concentration (IC50) lay within 100 to 1000 nM. Moreover, the “Ratio of potency in SMO binding assay” value on SMO was determined as 3.6.

Regarding `O=C(CC(O)(C(F)(F)F)C(F)(F)F)N1CC(S(=O)(=O)N2CCC(c3ccncc3)CC2)C1` [Compound 401, 4,4,4-trifluoro-3-hydroxy-1-[3-(4-pyridin-4-ylpiperidin-1-yl)sulfonylaze-tidin-1-yl]-3-(trifluoromethyl) butan-1-one], the IC50 in the test on C3H10T1/2 cells lay in the range of 100 to 1000 nM. Further, the “Ratio of potency in SMO binding assay” value at SMO is given as 3.0.

In the case of `CC(C)(C)OC(=O)N1CC(S(=O)(=O)N2CCC(c3ccnc4ccccc34)CC2)C1` [Compound 410, tert-butyl 3-(4-quinolin-4-ylpiperidin-1-yl)sulfonylaze-tidine-1-carboxylate], in the test with C3H10T1/2 cells, the half-maximal inhibitory concentration (IC50) was 100 to 1000 nM. Besides, the “Ratio of potency in SMO binding assay” value on SMO came to 3.1.

Source of the values: patent publication US10961238B2, “Modulators of hedgehog (Hh) signaling pathway” (E-THERAPEUTICS PLC, priority 2016, dated 2021).
